According to patent US20240246955A1, “TROPOMYOSIN RECEPTOR KINASE (TRK) DEGRADATION COMPOUNDS AND METHODS OF USE” (CULLGEN (SHANGHAI), INC., priority 2021, published 2024):

Tests used:
[1] = test system: KM12 cells; assay: KM12 cell viability assay (CellTiter-Glo); assay type: cell-based; settings: for IC50: Homo sapiens, 72 h, KM12 cells, 3 days, CellTiter-Glo
Description: The kinase activity of TRK is known to play important roles in tumors expressing TRK-fusion proteins, as TRK kinase inhibitors compromise cell proliferation, survival, and induce marked clinical responses (Amatu et al., 2016; Drilon et al., 2018; Drilon et al., 2017; Khotskaya et al., 2017). KM12 cells seeded in 96-well plates were treated with heterobifunctional compounds following a 11-point 3-fold serial dilution. Three days after treatment, cell viability was determined using the CellTiter-Glo kit, and normalized to the mean values of 3 replicates of untreated cells. Dose-dependent response was analyzed following the least-squares non-linear regression method using the GraphPad Prism software. Each data point in the figure represents the mean values of three technical replicates ±standard deviation.
KM12 cells seeded in 96-well plates were treated with heterobifunctional compounds following a 11-point 3-fold serial dilution for 3 days.
KM12, TRKA G595R mutated KM12, HEL, and other cells were cultured at 37° C. with 5% CO2 in DMEM or RPMI 1640 Medium supplemented with 10% fetal bovine serum. Cells were authenticated using the short tandem repeat (STR) assays. Mycoplasma test results were negative.
Cells were seeded at a density of 5000 cells per well in 96-well assay plates and treated with test compounds following a 11-point 3-fold serial dilution. Three days later, cell viability was determined using the CellTiter-Glo assay kit (Promega) according to the manufacturer's instructions. The dose-response curves were determined and IC50 values were calculated using the GraphPad Prism software following a nonlinear regression (least squares fit) method.

[2] = biological target: T1, TPM3-TRKA fusion protein (Homo sapiens, UniProt P04629); assay: TPM3-TRKA degradation in KM12 cells (Western blot); assay type: cell-based; settings: 16 hours, TRK protein, immunoblot; for inhibition at 0.01 µM: 10 nM; for inhibition at 0.1 µM: 100 nM
T1 construct: TPM3 (N-terminal part of tropomyosin alpha-3, natural fusion partner); endogenous in cells; host or cells: KM12 colon cancer cells; the other entry of the earlier key: TPM3 (P06753, Tropomyosin alpha-3 chain)
T1 sequence (P04629 with tags, fused parts or gaps): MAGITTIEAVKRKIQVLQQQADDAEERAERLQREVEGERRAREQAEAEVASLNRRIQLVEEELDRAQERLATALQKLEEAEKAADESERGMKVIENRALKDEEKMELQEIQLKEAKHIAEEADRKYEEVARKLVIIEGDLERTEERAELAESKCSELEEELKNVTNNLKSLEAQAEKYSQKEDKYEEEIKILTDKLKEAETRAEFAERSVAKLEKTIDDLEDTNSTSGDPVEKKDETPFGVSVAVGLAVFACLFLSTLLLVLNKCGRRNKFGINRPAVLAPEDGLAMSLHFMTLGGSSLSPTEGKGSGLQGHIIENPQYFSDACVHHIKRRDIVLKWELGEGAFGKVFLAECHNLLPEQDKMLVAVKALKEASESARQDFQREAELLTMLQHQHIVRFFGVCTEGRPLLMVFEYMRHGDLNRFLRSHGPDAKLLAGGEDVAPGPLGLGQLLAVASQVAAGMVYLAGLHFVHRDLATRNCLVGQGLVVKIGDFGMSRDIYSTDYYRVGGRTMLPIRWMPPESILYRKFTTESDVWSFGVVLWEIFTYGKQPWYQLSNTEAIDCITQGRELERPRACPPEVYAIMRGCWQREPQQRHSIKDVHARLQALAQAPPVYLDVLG
Description: Specific exemplary heterobifunctional compounds were characterized in KM12 cells. KM12 cells that express TPM3-TRKA fusion protein were treated with 10 nM or 100 nM heterobifunctional compounds disclosed herein or their corresponding warheads/inhibitors for 16 hours. Cells were collected, lysed and subject to immunoblotting using an antibody specific to TRK proteins.
KM12 cells were treated with heterobifunctional compounds at 10 nM or 100 nM for 16 hours.
Cultured cells were washed with cold PBS once and lysed in cold RIPA buffer supplemented with protease inhibitors and phosphatase inhibitors (Beyotime Biotechnology). The solutions were then incubated at 4° C. for 30 minutes with gentle agitation to fully lyse cells. Cell lysates were centrifuged at 13,000 rpm for 10 minutes at 4° C. and pellets were discarded. Total protein concentrations in the lysates were determined by BCA assays (Beyotime Biotechnology). Cell lysates were mixed with Laemmli loading buffer to 1× and heated at 99° C. for 5 min. Proteins were resolved on SDS-PAGE and visualized by chemiluminescence. Images were taken by a ChemiDoc MP Imaging system (Bio-Rad). Protein bands were quantitated using the software provided by Bio-Rad.
The percentage of TRK protein degradation of each compound at 10 nM and 100 nM was determined in KM12 cells as described in Methods. The percentage of degradation of each compound was indicated in the following categories: N/A: data not available; −: no degradation; +: degradation less than 50%; ++: degradation equal or greater than 50% but less than […]; +++: degradation equal or greater than 80%.

COCCN1C[C@@H](NC(=O)Nc2c(C)c(-c3cnc(N4CCN(C(=O)CNC(=O)C[C@H](NC(=O)[C@@H]5C[C@@H](O)CN5C(=O)[C@@H](NC(=O)C5(F)CC5)C(C)(C)C)c5ccc(-c6scnc6C)cc5)CC4)nc3)nn2-c2ccccc2)[C@H](c2cccc(F)c2)C1 [CPD-011, (2S,4R)-1-((S)-2-(1-fluorocyclopropane-1-carboxamido)-3,3-dimethylbutanoyl)-N-((S)-3-((2-(4-(5-(5-(3-((3S,4R)-4-(3-fluorophenyl)-1-(2-methoxyethyl)pyrrolidin-3-yl)ureido)-4-methyl-1-phenyl-1H-pyrazol-3-yl)pyrimidin-2-yl)piperazin-1-yl)-2-oxoethyl)amino)-1-(4-(4-methylthiazol-5-yl)phenyl)-3-oxopropyl)-4-hydroxypyrrolidine-2-carboxamide]
IC50 [1]: 119 nM | inhibition at 0.01 µM [2]: < 50% | inhibition at 0.1 µM [2]: 50 to 800%

COCCN1C[C@@H](NC(=O)Nc2c(C)c(-c3cnc(N4CCN(C(=O)CCCCCNC(=O)C[C@H](NC(=O)[C@@H]5C[C@@H](O)CN5C(=O)[C@@H](NC(=O)C5(F)CC5)C(C)(C)C)c5ccc(-c6scnc6C)cc5)CC4)nc3)nn2-c2ccccc2)[C@H](c2cccc(F)c2)C1 [CPD-012, (2S,4R)-1-((S)-2-(1-fluorocyclopropane-1-carboxamido)-3,3-dimethylbutanoyl)-N-((S)-3-((6-(4-(5-(5-(3-((3S,4R)-4-(3-fluorophenyl)-1-(2-methoxyethyl)pyrrolidin-3-yl)ureido)-4-methyl-1-phenyl-1H-pyrazol-3-yl)pyrimidin-2-yl)piperazin-1-yl)-6-oxohexyl)amino)-1-(4-(4-methylthiazol-5-yl)phenyl)-3-oxopropyl)-4-hydroxypyrrolidine-2-carboxamide]
IC50 [1]: 132 nM | inhibition at 0.01 µM [2]: < 50% | inhibition at 0.1 µM [2]: 50 to 800%

COCCN1C[C@@H](NC(=O)Nc2c(C)c(-c3cnc(N4CCN(C(=O)CCCNC(=O)C[C@H](NC(=O)[C@@H]5C[C@@H](O)CN5C(=O)[C@@H](NC(=O)C5(F)CC5)C(C)(C)C)c5ccc(-c6scnc6C)cc5)CC4)nc3)nn2-c2ccccc2)[C@H](c2cccc(F)c2)C1 [CPD-013, (2S,4R)-1-((S)-2-(1-fluorocyclopropane-1-carboxamido)-3,3-dimethylbutanoyl)-N-((S)-3-((4-(4-(5-(5-(3-((3S,4R)-4-(3-fluorophenyl)-1-(2-methoxyethyl)pyrrolidin-3-yl)ureido)-4-methyl-1-phenyl-1H-pyrazol-3-yl)pyrimidin-2-yl)piperazin-1-yl)-4-oxobutyl)amino)-1-(4-(4-methylthiazol-5-yl)phenyl)-3-oxopropyl)-4-hydroxypyrrolidine-2-carboxamide]
IC50 [1]: 79.7 nM | inhibition at 0.01 µM [2]: < 50% | inhibition at 0.1 µM [2]: 50 to 800%

COCCN1C[C@@H](NC(=O)Nc2c(C)c(-c3cnc(N4CCN(C(=O)CCCCCCCNC(=O)C[C@H](NC(=O)[C@@H]5C[C@@H](O)CN5C(=O)[C@@H](NC(=O)C5(F)CC5)C(C)(C)C)c5ccc(-c6scnc6C)cc5)CC4)nc3)nn2-c2ccccc2)[C@H](c2cccc(F)c2)C1 [CPD-014, (2S,4R)-1-((S)-2-(1-fluorocyclopropane-1-carboxamido)-3,3-dimethylbutanoyl)-N-((S)-3-((8-(4-(5-(5-(3-((3S,4R)-4-(3-fluorophenyl)-1-(2-methoxyethyl)pyrrolidin-3-yl)ureido)-4-methyl-1-phenyl-1H-pyrazol-3-yl)pyrimidin-2-yl)piperazin-1-yl)-8-oxooctyl)amino)-1-(4-(4-methylthiazol-5-yl)phenyl)-3-oxopropyl)-4-hydroxypyrrolidine-2-carboxamide]
IC50 [1]: 17.8 nM | inhibition at 0.01 µM [2]: 50 to 800% | inhibition at 0.1 µM [2]: > 80%

COCCN1C[C@@H](NC(=O)Nc2c(C)c(-c3cnc(N4CCN(C(=O)CCCCCCCCCNC(=O)C[C@H](NC(=O)[C@@H]5C[C@@H](O)CN5C(=O)[C@@H](NC(=O)C5(F)CC5)C(C)(C)C)c5ccc(-c6scnc6C)cc5)CC4)nc3)nn2-c2ccccc2)[C@H](c2cccc(F)c2)C1 [CPD-015, (2S,4R)-1-((S)-2-(1-fluorocyclopropane-1-carboxamido)-3,3-dimethylbutanoyl)-N-((S)-3-((10-(4-(5-(5-(3-((3S,4R)-4-(3-fluorophenyl)-1-(2-methoxyethyl)pyrrolidin-3-yl)ureido)-4-methyl-1-phenyl-1H-pyrazol-3-yl)pyrimidin-2-yl)piperazin-1-yl)-10-oxodecyl)amino)-1-(4-(4-methylthiazol-5-yl)phenyl)-3-oxopropyl)-4-hydroxypyrrolidine-2-carboxamide]
IC50 [1]: 35.5 nM | inhibition at 0.01 µM [2]: 50 to 800% | inhibition at 0.1 µM [2]: 50 to 800%

COCCN1C[C@@H](NC(=O)Nc2c(C)c(-c3cnc(N4CCN(C(=O)CCOCCOCCNC(=O)C[C@H](NC(=O)[C@@H]5C[C@@H](O)CN5C(=O)[C@@H](NC(=O)C5(F)CC5)C(C)(C)C)c5ccc(-c6scnc6C)cc5)CC4)nc3)nn2-c2ccccc2)[C@H](c2cccc(F)c2)C1 [CPD-016, (2S,4R)-1-((S)-2-(1-fluorocyclopropane-1-carboxamido)-3,3-dimethylbutanoyl)-N-((S)-3-((2-(2-(3-(4-(5-(5-(3-((3S,4R)-4-(3-fluorophenyl)-1-(2-methoxyethyl)pyrrolidin-3-yl)ureido)-4-methyl-1-phenyl-1H-pyrazol-3-yl)pyrimidin-2-yl)piperazin-1-yl)-3-oxopropoxy)ethoxy)ethyl)amino)-1-(4-(4-methylthiazol-5-yl)phenyl)-3-oxopropyl)-4-hydroxypyrrolidine-2-carboxamide]
IC50 [1]: 190 nM | inhibition at 0.01 µM [2]: < 50% | inhibition at 0.1 µM [2]: 50 to 800%

COCCN1C[C@@H](NC(=O)Nc2c(C)c(-c3cnc(N4CCN(C(=O)CCOCCOCCOCCNC(=O)C[C@H](NC(=O)[C@@H]5C[C@@H](O)CN5C(=O)[C@@H](NC(=O)C5(F)CC5)C(C)(C)C)c5ccc(-c6scnc6C)cc5)CC4)nc3)nn2-c2ccccc2)[C@H](c2cccc(F)c2)C1 [CPD-017, (2S,4R)-1-((S)-2-(1-fluorocyclopropane-1-carboxamido)-3,3-dimethylbutanoyl)-N-((S)-16-(4-(5-(5-(3-((3S,4R)-4-(3-fluorophenyl)-1-(2-methoxyethyl)pyrrolidin-3-yl)ureido)-4-methyl-1-phenyl-1H-pyrazol-3-yl)pyrimidin-2-yl)piperazin-1-yl)-1-(4-(4-methylthiazol-5-yl)phenyl)-3,16-dioxo-7,10,13-trioxa-4-azahexadecyl)-4-hydroxypyrrolidine-2-carboxamide]
IC50 [1]: 445 nM | inhibition at 0.1 µM [2]: 50 to 800%

COCCN1C[C@@H](NC(=O)Nc2c(C)c(-c3cnc(N4CCN(C(=O)CCOCCOCCOCCOCCNC(=O)C[C@H](NC(=O)[C@@H]5C[C@@H](O)CN5C(=O)[C@@H](NC(=O)C5(F)CC5)C(C)(C)C)c5ccc(-c6scnc6C)cc5)CC4)nc3)nn2-c2ccccc2)[C@H](c2cccc(F)c2)C1 [CPD-018, (2S,4R)-1-((S)-2-(1-fluorocyclopropane-1-carboxamido)-3,3-dimethylbutanoyl)-N-((S)-19-(4-(5-(5-(3-((3S,4R)-4-(3-fluorophenyl)-1-(2-methoxyethyl)pyrrolidin-3-yl)ureido)-4-methyl-1-phenyl-1H-pyrazol-3-yl)pyrimidin-2-yl)piperazin-1-yl)-1-(4-(4-methylthiazol-5-yl)phenyl)-3,19-dioxo-7,10,13,16-tetraoxa-4-azanonadecyl)-4-hydroxypyrrolidine-2-carboxamide]
IC50 [1]: 852 nM | inhibition at 0.1 µM [2]: 50 to 800%

COCCN1C[C@@H](NC(=O)Nc2c(C)c(-c3cnc(N4CCN(C(=O)CNc5ccc6c(c5)C(=O)N(C5CCC(=O)NC5=O)C6=O)CC4)nc3)nn2-c2ccccc2)[C@H](c2cccc(F)c2)C1 (stereo partly drawn) [CPD-019, 1-(3-(2-(4-((2-(2,6-dioxopiperidin-3-yl)-1,3-dioxoisoindolin-5-yl)glycyl)piperazin-1-yl)pyrimidin-5-yl)-4-methyl-1-phenyl-1H-pyrazol-5-yl)-3-((3S,4R)-4-(3-fluorophenyl)-1-(2-methoxyethyl)pyrrolidin-3-yl)urea]
viability of KM12 cells ([1]; 11-point 3-fold serial dilution, 3 days (FIG. 3)): inhibited the viability | IC50 [1]: 9.2 nM | inhibition at 0.01 µM [2]: > 80% | inhibition at 0.1 µM [2]: > 80%
